What all share (assay type): cell-based
One data set deals with T1, mouse Mincle (Mus musculus, UniProt Q9R0Q8).
T1 construct: host or cells: HEK (HEK-Blue) cells with NF-κB-driven SEAP reporter
T1 sequence (Q9R0Q8 1-214): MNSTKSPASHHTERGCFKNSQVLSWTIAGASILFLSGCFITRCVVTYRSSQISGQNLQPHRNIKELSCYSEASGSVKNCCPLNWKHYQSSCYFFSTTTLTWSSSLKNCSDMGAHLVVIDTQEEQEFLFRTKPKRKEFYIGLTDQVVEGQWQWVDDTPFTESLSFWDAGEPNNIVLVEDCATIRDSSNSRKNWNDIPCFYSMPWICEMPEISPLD
Kind of data set: HEK cells expressing mouse Mincle with NF-κB-driven SEAP reporter. On the procedure: (§1) Human and mouse Mincle expressing HEK cells were obtained from Invivogen (San Diego, CA). Cells were cultured according to the manufactures instructions in DMEM with 10% FBS, 50 U/ml penicillin, […] streptomycin, […] Normocin, 2 mM L-glutamine, 30 μg/ml blasticidin, 1 μg/ml puromycin and 1x HEK-Blue™ CLR Selection. For assay, indicated compounds were serially diluted in diluent (50%IPA/50% isooctane), 20 μl of a 10x final concentration were applied to the bottom of a 96-well tissue culture plate and the solvent was evaporated for >1 h in a biosafety hood. HEK cells were applied to the plates at a density of 3 × 10^5 cells/well and incubated for 18–24 h at 37°C. Cell supernatants were harvested and analyzed via the manufacturer's instructions using Hek-Blue^TM Detection. SEAP activity was assessed by reading the optical density (OD) at 620–655 nm with a microplate reader; data are expressed as the fold change in OD over vehicle treated cells.
(§2) To investigate the capacity of these molecules to bind to and activate the Mincle receptor, we used human embryonic kidney (HEK) cells expressing the human or mouse Mincle receptor along with an NF-κB-driven secreted embryonic alkaline phosphatase (SEAP) reporter. Many of the αTDE compounds were able to induce production of SEAP in a dose dependent manner (Figure 2). HEK null cells (HEK cells containing the NF-kB reporter without Mincle receptor) were used as a negative controls to confirm the receptor specificity of the compounds in HEK cells expressing human or mouse Mincle reporter (Supplemental Figure 4). […] The relative activity of TDM and TDB in the human and mouse HEK cells is consistent with the results reported by others ([20]). […] This synthetic version is a shorter chain version of the lipid-derived one reported to be “human-specific” ([28]).
(§3) Figure 2 Activation of human or mouse Mincle in response to synthetic αTDE compounds. The indicated compounds were dissolved in 50% isopropanol/isooctane, serially diluted in vehicle and then dried to the bottom of a tissue culture plate. HEK cells transfected with human (A–C) or mouse (D–F) Mincle and an NF-κB-driven SEAP reporter were incubated with the compounds for 24 h followed by assessment of the supernatants for SEAP levels. Data are represented as fold change in OD650 over vehicle treated cells. Graphs are mean values from three independent experiments ± SEM. Table in (G) represents the average calculated EC50 and average max SEAP value (± SD, n = 3) for each compound in each cell line. […]

For a further data set, the target named is T2, human Mincle (Homo sapiens, UniProt Q9ULY5).
T2 construct: host or cells: HEK (HEK-Blue) cells with NF-κB-driven SEAP reporter
T2 sequence (Q9ULY5 1-219): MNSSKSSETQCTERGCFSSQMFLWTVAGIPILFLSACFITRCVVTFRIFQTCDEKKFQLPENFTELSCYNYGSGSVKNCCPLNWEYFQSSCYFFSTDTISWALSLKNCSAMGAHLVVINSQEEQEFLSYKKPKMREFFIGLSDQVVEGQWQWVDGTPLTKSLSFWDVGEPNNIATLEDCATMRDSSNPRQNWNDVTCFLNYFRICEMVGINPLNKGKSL
The experiment in a line: HEK cells expressing human Mincle with NF-κB-driven SEAP reporter. The conditions noted are these: plate-coated compound, 24 h. On the procedure: as §1, §2, §3

The test system of data set [1] is Hek Blue human or mouse Mincle-expressing cells. The conditions noted are these: top concentrations, 24 h; compared with vehicle only-treated cells.

With `CCCCCCCCCCCCCCCCCCCCCC(=O)OC[C@H]1O[C@H](O[C@H]2O[C@H](COC(=O)CCCCCCCCCCCCCCCCCCCCC)[C@@H](O)[C@H](O)[C@H]2O)[C@H](O)[C@@H](O)[C@@H]1O` [TDB, trehalose dibehenate, reference compound], the “Relative activity in mouse vs. human Mincle HEK cells” value at mouse Mincle (comparison of mouse and human Mincle receptor transfected HEK cells) is reported as “more potent in the mouse vs. the human”. Further, the “SEAP induction / activation of mouse Mincle-expressing HEK cells (in words)” value at mouse Mincle (plate-coated compound, 24 h) is recorded as “robust ability to activate”. Further, the “SEAP induction / activation of human Mincle-expressing HEK cells (in words)” value on human Mincle was “robust ability to activate”. For the same compound, the “Cell viability of Mincle HEK cells” value in data set [1] is “marked decreases in viability”.
